In article PMC12973313 (Chemical Science, 2026):
Where “and” joins values, the source holds several entries; their conditions need not be identical. Identical values can stand only once. Like-named read-outs stand apart in the source and are kept apart here.

Experiments:
[1] = Quantitative 1H NMR, D2O 5% EtOH (self-association); assay type: physicochemical; settings: 5.56 mM, 298 K, proportion NMR silent
From the text: However, when supplied as a 1 : 1 enantiomeric mixture, although the trend in increased incorporation of 7 + 9 over 3 + 5 into the higher order aggregate structure was retained from previous observations in polar organic solvents, the total proportion of SSA incorporated into these higher order structures was approximately 20% lower (from ≈ 50% to ≈ 30%) for the 1 : 1 enantiomeric mixture of 3 + 5 over the homogenous solution of those same SSAs.

[2] = Surface tension (pendant drop) / CAC determination, H2O 5% EtOH; assay type: physicochemical; settings: for Surface tension (mN m^-1): H2O 5% EtOH, at limit of SSA solubility = 5.56 mM; for CAC: H2O/5 % EtOH, above the limit of solubility
From the text: Here, the CAC is defined as the concentration at which any additional SSA added to a solution will result in the production of high-order self-associated species. […] To determine CAC, we used the pendant drop method to elucidate the surface tension of H2O 5% EtOH solutions of 1, 3, 5, 7, 9, and 1 : 1 SSA enantiomeric mixtures at 291 K (Table 2).

E. Faecalis NCTC 12201 = test: MIC assay; assay type: cell-based; settings: Enterococcus faecalis, NCTC12201; lowest concentration with no visible growth
Experimental: (§1) Section S3: Biological methods […]
(§2) Preparation of bacterial plates : Sterile TSB agar plates were streaked using the desired bacteria [Staphylococcus aureus (9144, 13616, USA 300 and 1199B ), Enterococcus faecalis (NCTC 775 and 12201 ) and Enterococcus faecium (NCTC 12204)] and incubated at 37 °C […]
(§3) Preparation of inoculum: An initial culture was made up by inoculating TSB (5 mL) with 3 single colonies of the desired bacteria under sterile conditions and incubated at 37 °C overnight. The optical density at 600 nm (OD 600) was adjusted using sterile distilled H 2O (dH2O) to equal ~1 x 10^6 bacteria/mL.
(§4) Preparation of 96 -well microplate : A solution of each compound in H2O/5 % EtOH was made […]
(§5) . The compound solution (200
(§6) […]. The bacterial suspension (100 µL) was dispensed into each well under sterile conditions. The plates were sealed using parafilm and incubated at 37 °C for 20 hours, after which the OD 600 was measured.

E. Faecium NCTC 12204 = test: MIC assay; assay type: cell-based; settings: Enterococcus faecium, NCTC12204; lowest concentration with no visible growth
Experimental: as §1, §2, §3, §4, §5, §6

Haemolysis assay = assay type: cell-based; settings: human, human red blood cells (erythrocytes), pH 7.4, 1.39 mM total molecular concentration, 37 °C
Experimental: Preparation of 96-well plate: Protocol modified from Travis et al.4 Heparinised human red blood cells collected from a volunteer and washed three times in PBS (pH 7.4). Compounds were serial diluted using PBS buffer across a 96-well V bottom Greiner plate. Negative control (100 µL PBS), and positive control (100 µL 0.1 % (v/v) Triton-X-100) were added to the plate.
100 µL of 10 % (v/v) of blood suspension added to all wells. Plates were incubated for 60 minutes at 37 °C. After incubation, plates were centrifuged for 15 minutes at 4680 rpm. The resultant supernatant was then transferred to a 96-well flat bottom plate and absorbance read at 540 nm (Fluostar Omega). Percent haemolysis was calculated using the formula as
Equation S2 - Percentage haemolysis calculation.
Haemolysis (%) = 𝐴𝑠𝑎𝑚𝑝𝑙𝑒 − 𝐴𝑛𝑒𝑔𝑎𝑡𝑖𝑣𝑒 𝑋 100

[3] = set-up: method as in PMID 29633393; settings: DMSO-d6 1% DCM, 112 mM, 298 K; proportion NMR silent; cited from earlier work
[4] = set-up: method as in PMID 29633393; settings: D2O 5% EtOH, 5.56 mM, 298 K; cited from earlier work
[5] = H2O 5% EtOH, 5.56 mM; cited from earlier work
[6] = H2O 5% EtOH, 5.56 mM; cited from earlier work; remark: listed apart in the source
[7] = Metabolic stability in liver microsomes; assay type: in vitro ADME, human
Experimental: Following this, the metabolic stability of 9 was determined against mouse, rat, and human liver microsomes. […] Within this assay the stability of the intact parent compound is monitored with respect to time, during incubation at 37 °C in the presence and absence of the co-factor NADPH – required for cytochrome p450 activity.
Metabolic Stability in Rat, Mouse and Human Liver Microsomes:
The metabolic stability of compounds at a concentration of 1 µM, in rat, mouse and human liver microsomes (BD Gentest, Franklin Lakes NJ) was measured following incubation with hepatic microsomes (0.5 mg of protein / mL) in the presence and absence of cofactor (NADPH) at 37 °C. Aliquots of each incubation were removed at 0.5, 5, 15, 30 and 60 minutes. […]
Samples were analysed using a Shimadzu Shimadzu Nexera LC Binary Gradient LC-30AD (Shimadzu Inc, Kyoto), coupled to a Sciex 5500 mass spectrometer (AB Inc., Illinois) for rat and mouse microsomes and a Sciex 6500+ for human microsomes. […]
The bi-directional permeability in Caco-2 cell lines was determined by seeding cells onto an HTS Transwell plate. […] To assess monolayer integrity the transepithelial electrical resistance (TEER) across the monolayer was measured using Millicell Epithelial volt-ohm meter prior to assay and Lucifer yellow (LY) fluorescence measurement post-assay. […]

SMILES	Q NMR (%) SSA anion [1] [%]	Q NMR (%) SSA cation [1] [%]	Surface tension (mN m^-1) [2]	CAC [2] [mM]	MIC (E. Faecalis NCTC 12201) [mM]	MIC (E. Faecium NCTC 12204) [mM]	hemolysis at 60 min, 1.39 mM (Haemolysis assay) [%]	other results
O=C(Nc1ccc(C(F)(F)F)cc1)N[C@@H](Cc1ccccc1)C(=O)O [SSA 7]	51	48	39.83 mN m^−1 and 39.83 ^c mN m^−1	> 5.56	> 2.78	> 2.78	0.47	
CC(C)CC(NC(=O)Nc1ccc(C(F)(F)F)cc1)C(=O)O (centres unmarked) [SSA 5]								Q NMR (%) SSA anion ([1]; listed as 5): 52%; Q NMR (%) SSA cation ([1]; listed as 5): 48%; Surface tension (mN m^-1) ([2]; listed as 5): 40.92 mN m^−1 and 40.92 ^c mN m^−1
O=C(O)CNC(=O)Nc1ccc(C(F)(F)F)cc1 [SSA 1]					> 2.78	> 2.78	0.29	Q NMR (%) SSA anion [3]: 0 (ref. [30]) %; Q NMR (%) SSA cation [3]: 0 (ref. [30]) %; Q NMR (%) SSA anion [4]: 68 (ref. [30]) %; dH (nm), DLS peak maxima [5]: 220 nm and 220 (ref. [30]) nm; Zeta potential (mV) [6]: -37 mV and −37 (ref. [30]) mV
O=C(Nc1ccc(C(F)(F)F)cc1)N[C@H](Cc1ccccc1)C(=O)O [SSA 9]	58	53	39.64 mN m^−1 and 39.64 ^c mN m^−1	> 5.56	> 2.78	> 2.78		microsomal CLint at 1 µM ([7]; human microsomes): < 7.5 µL/min/mg; half-life at 1 µM ([7]; human, 1 µM, 0.5 mg protein/mL, read-out: In vitro t1/2): > 3.08 h
CC(C)CC(NC(=O)Nc1ccc(C(F)(F)F)cc1)C(=O)O (centres unmarked) [SSA 3]				> 5.56	> 2.78	> 2.78		Q NMR (%) SSA anion ([1]; listed as 3): 50%; Q NMR (%) SSA cation ([1]; listed as 3): 44%; Surface tension (mN m^-1) ([2]; listed as 3): 40.92 mN m^−1 and 40.92 ^c mN m^−1
